# Data published in patent publication US8183001B2 (priority 2006, dated 2012).
# Columns and labels:
# Format in all cases: cell-based, C. elegans
# M1 chimera = M1 chimera (Caenorhabditis elegans, UniProt G5ECD3+G5EE10); settings: at EC50 GABA
# Protocol: (§1) Electrophysiology: Plasmids containing wild-type and mutagenized GABAA receptor subunits were linearized and transcribed in vitro using T3 RNA polymerase (mMessage mMachine T3 kit, Ambion, Austin Tex.). UNC-49B mRNA was injected into Xenopus laevis oocytes at 0.5 μg/μl either alone, or in a mixture with 0.5 μg/μl UNC-49C. […] The injection volume ranged between 27.6 nl to 50.6 nl. […] Cells were voltage clamped at −60 mV. All recordings were performed at room temperature.
# N305R = N305R (Caenorhabditis elegans, UniProt G5ECD3, N305R); settings: at EC50 GABA
# Protocol: as §1
# UNC-49B homomer = UNC-49B homomer (Caenorhabditis elegans, UniProt G5ECD3); settings: UNC-49B homomer
# Protocol: as §1
# UNC-49B-PS7 = UNC-49B-PS7 (Caenorhabditis elegans, UniProt G5ECD3, I262F/I265S/M258L/N259Q/N305R/S264A/T257F); settings: UNC-49B-PS7; at EC50 GABA
# Protocol: as §1
# X(I265S, Q259N) = settings: residue 259 reverted to asparagine, versus X(I265S)
# Protocol: as §1
# X(I267V) = X(I267V) (Caenorhabditis elegans, UniProt G5ECD3, I262F/I267V/M258L/N259Q/N305R/S264A/T257F/V261F); settings: at EC50 GABA
# Protocol: as §1
# X(I270L) = X(I270L) (Caenorhabditis elegans, UniProt G5ECD3, I262F/I270L/M258L/N259Q/N305R/S264A/T257F/V261F); settings: at EC50 GABA
# Protocol: as §1
# X(T269V) = X(T269V) (Caenorhabditis elegans, UniProt G5ECD3, I262F/M258L/N259Q/N305R/S264A/T257F/T269V/V261F); settings: at EC50 GABA
# Protocol: as §1
# XY chimera [1] = biological target: XY chimera (Caenorhabditis elegans, UniProt G5ECD3, I262F/I265S/I267V/I270L/M258L/N259Q/N305R/S264A/T257F/T269V/V261F/V273I); settings: XY chimera; at EC50 GABA
# Protocol: as §1
# XY chimera [2] = settings: XY chimera versus X chimera
# Protocol: as §1
# Y chimera = Y chimera (Caenorhabditis elegans, UniProt G5ECD3, I265S/I267V/I270L/N259Q/N305R/T269V/V261F/V273I); settings: Y chimera; at EC50 GABA
# Protocol: as §1
# YZ chimera = YZ chimera (Caenorhabditis elegans, UniProt G5ECD3, A281S/E280D/I265S/I267V/I270L/L277I/N259Q/N305R/S282A/T269V/V261F/V273I); settings: at EC50 GABA
# Protocol: as §1
# linker chimera = linker chimera (Caenorhabditis elegans, UniProt G5ECD3, N305R, form not given); settings: at EC50 GABA
# Protocol: as §1
# Y(M258L) = biological target: T1, Y(M258L) (Caenorhabditis elegans, UniProt G5ECD3, I265S/I267V/I270L/M258L/N259Q/N305R/T269V/V261F/V273I); settings: M258L mutant; median of 1000 bootstrap trials
# T1 sequence (G5ECD3 23-506 M258L/N259Q/V261F/I265S/I267V/T269V/I270L/V273I/N305R): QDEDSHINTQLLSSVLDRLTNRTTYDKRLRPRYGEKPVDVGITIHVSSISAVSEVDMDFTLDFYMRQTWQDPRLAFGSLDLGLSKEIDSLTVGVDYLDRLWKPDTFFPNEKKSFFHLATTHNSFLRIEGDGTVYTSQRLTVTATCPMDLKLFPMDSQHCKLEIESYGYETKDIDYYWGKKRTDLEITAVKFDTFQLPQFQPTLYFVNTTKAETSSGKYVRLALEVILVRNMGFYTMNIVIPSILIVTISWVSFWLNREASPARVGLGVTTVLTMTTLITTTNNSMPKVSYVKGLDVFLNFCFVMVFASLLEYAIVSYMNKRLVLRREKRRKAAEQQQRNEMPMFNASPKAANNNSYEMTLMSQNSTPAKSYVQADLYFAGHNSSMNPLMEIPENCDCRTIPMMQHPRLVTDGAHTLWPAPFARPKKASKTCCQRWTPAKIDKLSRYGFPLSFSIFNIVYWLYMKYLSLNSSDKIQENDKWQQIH
# Protocol: as §1
# (§2) Error bars in the figures are standard error of the mean. All drugs were obtained from Sigma (St. Louis). […] Picrotoxin was prepared as a 100 mM stock in DMSO.
# (§3) Important residues in the X segment were tested by substituting UNC-49C residues into the Y chimera. […] These divergent X segment residues were tested by mutating them from UNC-49B to UNC-49C amino acids in the Y chimera background.
# Y(M258L/S264A) = biological target: T2, Y(M258L/S264A) (Caenorhabditis elegans, UniProt G5ECD3, I265S/I267V/I270L/M258L/N259Q/N305R/S264A/T269V/V261F/V273I); settings: M258L/S264A mutant; median of 1000 bootstrap trials
# T2 sequence (G5ECD3 23-506 M258L/N259Q/V261F/S264A/I265S/I267V/T269V/I270L/V273I/N305R): T1 sequence (G5ECD3 23-506 M258L/N259Q/V261F/I265S/I267V/T269V/I270L/V273I/N305R)
# Protocol: as §1, §2, §3
# Chain of M1 chimera (G5ECD3 entry or part of it, change not shown): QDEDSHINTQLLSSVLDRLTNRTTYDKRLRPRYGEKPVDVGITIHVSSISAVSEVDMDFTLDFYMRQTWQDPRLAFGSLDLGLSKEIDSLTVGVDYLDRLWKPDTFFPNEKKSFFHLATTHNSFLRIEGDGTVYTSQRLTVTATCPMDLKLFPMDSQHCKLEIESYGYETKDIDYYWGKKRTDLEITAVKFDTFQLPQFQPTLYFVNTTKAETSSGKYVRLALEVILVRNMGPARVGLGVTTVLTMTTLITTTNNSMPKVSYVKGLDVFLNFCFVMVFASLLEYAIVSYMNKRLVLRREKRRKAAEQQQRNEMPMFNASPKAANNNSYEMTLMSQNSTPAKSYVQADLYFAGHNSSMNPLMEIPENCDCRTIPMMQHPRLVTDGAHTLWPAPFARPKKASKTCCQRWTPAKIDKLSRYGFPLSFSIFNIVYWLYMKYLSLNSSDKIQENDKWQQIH
# Chain of M1 chimera (G5EE10 256-283, change not shown): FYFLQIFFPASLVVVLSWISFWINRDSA
substance,measurement,setting,value
pregnenolone sulfate [PS],PS Slope coefficient,M1 chimera,0.9 ± 0.1 (n = 4)
same,PS Slope coefficient,N305R,1.9 ± 0.2 (n = 4)
same,inhibition of GABA-evoked current,"UNC-49B homomer; 100 μM PS, EC50 GABA",40%
same,PS Slope coefficient,UNC-49B homomer; at EC50 GABA,0.7
same,PS Slope coefficient,UNC-49B-PS7,1.0 ± 0.0
same,fold reduction in PS sensitivity,"X(I265S, Q259N)",2.2 fold
same,PS Slope coefficient,X(I267V),1.1 ± 0.05
same,PS Slope coefficient,X(I270L),1.5 ± 0.1
same,PS Slope coefficient,X(T269V),1.2 ± 0.1
same,PS Slope coefficient,XY chimera [1],1.6 ± 0.2
same,fold increase in PS sensitivity,XY chimera [2],3.7 fold
same,PS Slope coefficient,Y chimera,10.4 ± 1.3
same,PS Slope coefficient,YZ chimera,3.5 ± 1.6
same,PS Slope coefficient,linker chimera,1.3 ± 0.2 (n = 5)
same,"A, amplitude of normalized current above 1 (biphasic fit)",Y(M258L),1.56
same,"nE, slope coefficient for the enhancement",Y(M258L),1.0
same,"nI, slope coefficient for the inhibition",Y(M258L),1.8
same,"A, amplitude of normalized current above 1 (biphasic fit)",Y(M258L/S264A),1.0
same,"nE, slope coefficient for the enhancement",Y(M258L/S264A),1.3
same,"nI, slope coefficient for the inhibition",Y(M258L/S264A),1 .9
